Counter-ions that a name gives are not always drawn.
The compounds below were run against T1, Rat brain protein farnesyltransferase (Rattus norvegicus, UniProt Q02293+Q04631) (assay: % inhibition of farnesylation, scintillation proximity assay with biotin-K Ras B fragment). Details: Table 2; 1 × 10^-6 M.
T1 construct: Rat brain protein farnesyltransferase activity is measured; from tissue; host or cells: rat brain
Type: biochemical
From the text: The ability of the compounds of the invention to inhibit protein farnesyltransferase or protein geranylgeranyltransferase can be measured according to the method of Moores, et al., J. Biol. Chem. 266: 14603 (1991) or the method of Vogt, et al., J. Biol. Chem. 270:660-664 (1995). In addition, procedures for determination of the inhibition of farnesylation of the oncogene protein Ras are described by Goldstein, et al., J. Biol. Chem., 266:15575-15578 (1991) and by Singh in U.S. Pat. No. 5,245,061.
In addition, in vitro inhibition of protein farnesyltransferase may be measured by the following procedure. Rat brain protein farnesyltransferase activity is measured using an Amersham Life Science commercial scintillation proximity assay kit and substituting a biotin-K Ras B fragment (biotin-[…]CO2 H), 0.1 mM final concentration, for the biotin-lamin substrate provided by Amersham. The enzyme is purified according to Reiss, Y., et al., Cell, 62: 81-88 (1990), utilizing steps one through three.
The % inhibition of protein farnesyltransferase was determined for representative compounds of the invention.

T1 sequence (Q02293 whole entry, the tested form may be a part, one chain of several): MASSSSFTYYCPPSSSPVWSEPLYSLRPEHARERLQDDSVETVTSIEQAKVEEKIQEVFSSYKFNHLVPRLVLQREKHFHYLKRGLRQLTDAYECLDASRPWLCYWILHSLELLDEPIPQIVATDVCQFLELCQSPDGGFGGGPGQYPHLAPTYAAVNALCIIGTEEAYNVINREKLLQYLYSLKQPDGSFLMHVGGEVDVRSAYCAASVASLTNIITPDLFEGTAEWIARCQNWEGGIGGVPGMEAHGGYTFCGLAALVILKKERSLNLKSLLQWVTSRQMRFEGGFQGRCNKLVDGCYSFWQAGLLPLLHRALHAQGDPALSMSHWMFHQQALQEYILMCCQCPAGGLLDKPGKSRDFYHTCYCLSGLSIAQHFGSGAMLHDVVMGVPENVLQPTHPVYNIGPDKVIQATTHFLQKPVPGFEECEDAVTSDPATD

Structure (SMILES)	% inhibition at 1 × 10^-6 M [%]
CSCC[C@H](NC(=O)c1ccc(/C=C/CC2CCCCC2)cc1-c1ccccc1C)C(=O)O [Example 471]	94
CSCC[C@H](NC(=O)c1ccc(/C=C/CCc2ccccc2)cc1-c1ccccc1C)C(=O)O [Example 472]	97
CSCC[C@H](NC(=O)c1ccc(CCCC(=O)c2ccc3ccccc3c2)cc1-c1ccccc1C)C(=O)O [Example 473]	96
CSCC[C@H](NC(=O)c1ccc(/C=C/CC(O)c2ccc3ccccc3c2)cc1-c1ccccc1C)C(=O)O (stereo partly shown) [Example 474]	92
CSCC[C@H](NC(=O)c1ccc(NCC(CO)(Cc2ccccc2)Cc2ccccc2)cc1-c1ccccc1C)C(=O)O [Example 475]	21
CSCC[C@H](NC(=O)c1ccc(NCC(CO)CC2CCCCC2)cc1-c1ccccc1C)C(=O)O (stereo partly shown) [Example 479]	95
CSCC[C@H](NC(=O)c1ccc(C=CCc2ccc3ccccc3c2)cc1-c1ccccc1C)C(=O)O [Example 496]	93
CSCC[C@H](NC(=O)c1ccc(NCCO)cc1-c1ccccc1)C(=O)O [Example 502]	24
CSCC[C@H](NC(=O)c1ccc(NC(=O)[C@@H](N)COCc2ccccc2)cc1-c1ccccc1)C(=O)O [Example 503]	57
CSCC[C@H](NC(=O)c1ccc(CN(Cc2ccccc2)Cc2ccco2)cc1-c1ccccc1C)C(=O)O [Example 504]	90
CSCC[C@H](NC(=O)c1ccc(CN(CCCc2ccccc2)c2ccccc2)cc1-c1ccccc1C)C(=O)O [Example 508]	95
CSCC[C@H](NC(=O)c1ccc(CN(CC23CC4CC(CC(C4)C2)C3)c2ccccc2)cc1-c1ccccc1C)C(=O)O [Example 510]	84
CSCC[C@H](NC(=O)c1ccc(CN(Cc2ccccc2)Cc2ccccc2)cc1-c1ccccc1C)C(=O)O [Example 512]	94
CSCC[C@H](NC(=O)c1ccc(CN(Cc2ccccc2)Cc2cccc(Oc3ccccc3)c2)cc1-c1ccccc1C)C(=O)O [Example 514]	94
CSCC[C@H](NC(=O)c1ccc(CN(C)CCc2ccccc2)cc1-c1ccccc1C)C(=O)O [Example 516]	95
CSCC[C@H](NC(=O)c1ccc(CNC(CC2CCCCC2)C(O)C(O)CC(C)C)cc1-c1ccccc1C)C(=O)O (stereo partly shown) [Example 528]	99

Continued, values first:

% inhibition at 1 × 10^-6 M [%]	Structure (SMILES)
91	CSCC[C@H](NC(=O)c1ccc(NCC(CO)Cc2ccccc2)cc1-c1ccccc1C)C(=O)O (stereo partly shown) [Example 476]
98	CSCC[C@H](NC(=O)c1ccc(CCCCC2CCCCC2)cc1-c1ccccc1C)C(=O)O [Example 478]
87	CSCC[C@H](NC(=O)c1ccc(C=CCCCc2ccccc2)cc1-c1ccccc1C)C(=O)O [Example 480]
95	CSCC[C@H](NC(=O)c1ccc(NC(=O)c2cnccc2C(F)(F)F)cc1-c1ccccc1C)C(=O)O [Example 481]
96	CSCC[C@H](NC(=O)c1ccc(/C=C/c2cncnc2)cc1-c1ccccc1C)C(=O)O [Example 494]
95	CSCC[C@H](NC(=O)c1ccc(/C=C/c2cnccn2)cc1-c1ccccc1C)C(=O)O [Example 495]
72	CSCC[C@H](NC(=O)c1ccc(CN(CCO)c2ccccc2)cc1-c1ccccc1)C(=O)O [Example 505]
96	CSCC[C@H](NC(=O)c1ccc(CN(CCc2ccccc2)c2ccccc2)cc1-c1ccccc1C)C(=O)O [Example 507]
77	CSCC[C@H](NC(=O)c1ccc(CN(CC(c2ccccc2)c2ccccc2)c2ccccc2)cc1-c1ccccc1C)C(=O)O [Example 509]
96	CSCC[C@H](NC(=O)c1ccc(CN(CCc2ccccc2)Cc2ccccc2)cc1-c1ccccc1C)C(=O)O [Example 513]
72	CSCC[C@H](NC(=O)c1ccc(CN(CCO)Cc2ccccc2)cc1-c1ccccc1)C(=O)O [Example 515]

Same assay, conditions: Table 3; 1 × 10^-7 M

Structure (SMILES)	% inhibition at 1 × 10^-7 M [%]
CSCC[C@H](NC(=O)c1ccc(C#Cc2cncnc2)cc1-c1ccccc1C)C(=O)[O-].[Li+] [Example 493]	51
CSCC[C@H](NC(=O)c1ccc(CN(CCC23CC4CC(CC(C4)C2)C3)c2ccccc2)cc1-c1ccccc1C)C(=O)O [Example 511]	82
CSCC[C@H](NC(=O)c1ccc(CNCCc2c[nH]c3ccccc23)cc1-c1ccccc1C)C(=O)O [Example 519]	89
CSCC[C@H](NC(=O)c1ccc(CNC(Cc2ccccc2)Cc2ccccc2)cc1-c1ccccc1C)C(=O)O [Example 523]	97
CSCC[C@H](NC(=O)c1ccc(CNC(CC2CCCCC2)CC2CCCCC2)cc1-c1ccccc1C)C(=O)O [Example 524]	99
CSCC[C@H](NC(=O)c1ccc(CN[C@H](CCCC(C)C)CC2CCCCC2)cc1-c1ccccc1C)C(=O)O [Example 527]	97

Next, values leading:

% inhibition at 1 × 10^-7 M [%]	Structure (SMILES)
97	CSCC[C@H](NC(=O)c1ccc(CN[C@H](CO)C2CCCCC2)cc1-c1ccccc1C)C(=O)O [Example 520]
96	CSCC[C@H](NC(=O)c1ccc(CN[C@H](/C=C\CC(C)C)CC2CCCCC2)cc1-c1ccccc1C)C(=O)O [Example 526]

Same assay, conditions: Table 4; 1 × 10^-8 M

% inhibition at 1 × 10^-8 M [%]	Structure (SMILES)
90	CSCC[C@H](NC(=O)c1ccc(CN(CCc2ccccc2)c2cncnc2)cc1-c1ccccc1C)C(=O)O [Example 518]

Same assay, conditions: read-out: % inhibition at 1 × 10^-6 M; Table 2; 1 × 10^-6 M

inhibition at 1 µM [%]	Structure (SMILES)
94	CSCC[C@H](NC(=O)c1ccc(Sc2ccc3ccccc3c2)cc1-c1ccccc1C)C(=O)O [Example 497, N-[4-(naphth-2-ylthio)-2-(2-methylphenyl)benzoyl]methionine]
98	CSCC[C@H](NC(=O)c1ccc(SCCc2ccccc2)cc1-c1ccccc1C)C(=O)O [Example 498, N-[4-(2-phenylethylthio)-2-(2-methylphenyl)benzoyl]methionine]
99	CCOC[C@H](CC1CCCCC1)OCc1ccc(C(=O)N[C@@H](CCSC)C(=O)O)c(-c2ccccc2C)c1 [Example 525, N-[4-(3-Cyclohexyl-1-ethoxypropan-2-yl)oxymethyl-2-(2-methylphenyl)benzoyl]methionine lithium salt]
94	CSCC[C@H](NC(=O)c1ccc(COCc2ccoc2)cc1-c1ccccc1C)C(=O)O [Example 530, N-[4-(furan-3-ylmethoxymethyl)-2-(2-methylphenyl)benzoyl]methionine litihium salt]

Same assay, conditions: read-out: % inhibition at 1 × 10^-7 M

Structure (SMILES)	inhibition at 0.1 µM [%]
CSCC[C@H](NC(=O)c1ccc(COC(Cc2ccccc2)Cc2ccccc2)cc1-c1ccccc1C)C(=O)O [Example 522, N-[4-(1,3-diphenylpropan-2-yl)oxymethyl-2-(2-methylphenyl)benzoyl]methionine lithium salt]	93
CSCC[C@H](NC(=O)c1ccc(COCCc2ccco2)cc1-c1ccccc1C)C(=O)O [Example 531, N-[4-(2-furan-2-ylethoxymethyl)-2-(2-methylphenyl)benzoyl]methionine lithium salt]	74
CSCC[C@H](NC(=O)c1ccc(COCc2cc3ccccc3o2)cc1-c1ccccc1C)C(=O)O [Example 533, N-[4-(benzofuran-2-ylmethoxymethyl)-2-(2-methylphenyl)benzoyl]methionine lithium salt]	91
CSCC[C@H](NC(=O)c1ccc(COC(Cc2ccccc2)c2ccco2)cc1-c1ccccc1C)C(=O)O (stereo partly shown) [Example 534, N-[4-(1-furan-2-yl-2-phenylethoxymethyl)-2-(2-methylphenyl)benzoyl]methionine lithium salt]	84
CSCC[C@H](NC(=O)c1ccc(COCCc2ccc(-c3ccc(F)cc3)o2)cc1-c1ccccc1C)C(=O)O [Example 535, N-[4-(5-(4-fluorophenyl)furan-2-ylethoxymethyl)-2-(2-methylphenyl)benzoyl]methionine lithium salt]	89
CSCC[C@H](NC(=O)c1ccc(COCCc2ccc(-c3ccc(Cl)cc3)o2)cc1-c1ccccc1C)C(=O)O [Example 536, N-[4-(5-(4-chlorophenyl)furan-2-ylethoxymethyl)-2-(2-methylphenyl)benzoyl]methionine lithium salt]	79
CSCC[C@H](NC(=O)c1ccc(COCc2cncs2)cc1-c1ccccc1C)C(=O)O [Example 539, N-[4-(thiazol-5-ylmethoxymethyl)-2-(2-methylphenyl)benzoyl]methionine lithium salt]	89

Same assay, conditions: read-out: % inhibition at 1 × 10^-7 M; Table 3; 1 × 10^-7 M

inhibition at 0.1 µM [%]	Structure (SMILES)
94	C=C(C)C1CC=C(COCc2ccc(C(=O)N[C@@H](CCSC)C(=O)O)c(-c3ccccc3C)c2)CC1 (stereo partly shown) [Example 521, N-[4-(4-isoprop-2-enylcyclohexen-1-yl)methoxymethyl-2-(2-methylphenyl)benzoyl]methionine lithium salt]
88	CSCC[C@H](NC(=O)c1ccc(COCc2ccc(C)o2)cc1-c1ccccc1C)C(=O)O [Example 532, N-[4-(5-methylfuran-2-ylmethoxymethyl)-2-(2-methylphenyl)benzoyl]methioninelithium salt]
